{"source": "patent US20120245161A1", "about": "(SANOFI, priority 2009, published 2012)", "note": "Structures can show the parent of a compound that is named as a salt."}
{"molecular_target": "T1, recombinant human beta tryptase (Homo sapiens, UniProt P20231)", "T1 construct": "made in house; host or cells: yeast cells", "T1 sequence (P20231 31-275)": "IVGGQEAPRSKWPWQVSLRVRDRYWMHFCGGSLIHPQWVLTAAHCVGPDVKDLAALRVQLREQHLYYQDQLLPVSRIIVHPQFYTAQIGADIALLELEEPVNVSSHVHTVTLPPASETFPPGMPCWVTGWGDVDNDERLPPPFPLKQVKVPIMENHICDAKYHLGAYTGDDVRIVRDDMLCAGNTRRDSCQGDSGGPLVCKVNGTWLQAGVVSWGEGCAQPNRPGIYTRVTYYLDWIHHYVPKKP", "assay": "beta-Tryptase inhibition, chromogenic enzyme assay (substrate S2366, read at 405 nm)", "type": "biochemical", "settings": "Ki calculated from IC50: Ki=IC50/(1+[Substrate]/Km); 0.5 mM substrate, room temperature; read-out: Tryptase Ki", "procedure,_shortened": "(§1)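 Recombinant human beta tryptase (yeast-expressed; native lung enzyme also used), 50 ng/mL final, with 0.5 mM (2×Km) chromogenic substrate S2366; 30 min in the dark, room temperature, read at 405 nm. Compounds at 0.01-10 μM in duplicate for IC50; Ki=IC50/(1+[S]/Km).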", "units": {"Ki": "nM"}}
{"smiles": "NCc1ccc(F)c(C2CCN(C(=O)c3cn(CCOC(F)(F)F)c4cccc(-c5ccncc5)c34)CC2)c1", "note": "[Example 78, [4-(5-Aminomethyl-2-fluoro-phenyl)-piperidin-1-yl]-[4-pyridin-4-yl-1-(2-trifluoromethoxy-ethyl)-1H-indol-3-yl]-methanone dihydrochloride]", "Ki": 117}
{"smiles": "COCCn1cc(C(=O)N2CCC(c3cc(CN)ccc3F)CC2)c2c(-c3cncc(C)c3)cccc21", "note": "[Example 82, [4-(5-Aminomethyl-2-fluoro-phenyl)-piperidin-1-yl]-[1-(2-methoxy-ethyl)-4-(5-methyl-pyridin-3-yl)-1H-indol-3-yl]-methanone dihydrochloride]", "Ki": 6}
{"smiles": "COCCn1cc(C(=O)N2CCC(c3cc(CN)ccc3F)CC2)c2c(-c3ccnc(C)c3)cccc21", "note": "[Example 83, [4-(5-Aminomethyl-2-fluoro-phenyl)-piperidin-1-yl]-[1-(2-methoxy-ethyl)-4-(2-methyl-pyridin-4-yl)-1H-indol-3-yl]-methanone dihydrochloride]", "Ki": 5}
{"smiles": "COCCn1cc(C(=O)N2CCC(c3cc(CN)ccc3F)CC2)c2c(-c3cncc(F)c3)cccc21", "note": "[Example 84, [4-(5-Aminomethyl-2-fluoro-phenyl)-piperidin-1-yl]-[4-(5-fluoro-pyridin-3-yl)-1-(2-methoxy-ethyl)-1H-indol-3-yl]-methanone dihydrochloride]", "Ki": 22}
{"smiles": "COCCn1cc(C(=O)N2CCC(c3cc(CN)ccc3F)CC2)c2c(-c3ccnc(OC)c3)cccc21", "note": "[Example 85, [4-(5-Aminomethyl-2-fluoro-phenyl)-piperidin-1-yl]-[1-(2-methoxy-ethyl)-4-(2-methoxy-pyridin-4-yl)-1H-indol-3-yl]-methanone dihydrochloride]", "Ki": 9}
{"smiles": "COCCn1cc(C(=O)N2CCC(c3cc(CN)ccc3F)CC2)c2c(-c3ccnn3C)cccc21", "note": "[Example 89, [4-(5-Aminomethyl-2-fluoro-phenyl)-piperidin-1-yl]-[1-(2-methoxy-ethyl)-4-(2-methyl-2H-pyrazol-3-yl)-1H-indol-3-yl]-methanone dihydrochloride]", "Ki": 11}
{"smiles": "CCCn1cc(-c2cccc3c2c(C(=O)N2CCC(c4cc(CN)ccc4F)CC2)cn3CCOC(F)(F)F)cn1", "note": "[Example 93, [4-(5-Aminomethyl-2-fluoro-phenyl)-piperidin-1-yl]-[4-(1-propyl-1H-pyrazol-4-yl)-1-(2-trifluoromethoxy-ethyl)-1H-indol-3-yl]-methanone dihydrochloride]", "Ki": 160}
{"molecular_target": "T1, recombinant human beta tryptase", "assay": "beta-Tryptase inhibition, chromogenic enzyme assay (substrate S2366, read at 405 nm)", "type": "biochemical", "settings": "Tryptase Ki (nM), Ki calculated from IC50: Ki=IC50/(1+[Substrate]/Km); 0.5 mM substrate, room temperature", "procedure,_shortened": "as §1", "units": {"Ki": "nM"}}
{"smiles": "COCCn1cc(C(=O)N2CCC(c3cc(CN)ccc3F)CC2)c2c(N)cccc21", "note": "[Example 75, [4-(5-Aminomethyl-2-fluoro-phenyl)-piperidin-1-yl]-[4-amino-1-(2-methoxy-ethyl)-1H-indol-3-yl]-methanone hydrochloride]", "Ki": 59}
{"smiles": "CNc1cccc2c1c(C(=O)N1CCC(c3cc(CN)ccc3F)CC1)cn2CCOC", "note": "[Example 76, [4-(5-Aminomethyl-2-fluoro-phenyl)-piperidin-1-yl]-[4-methylamino-1-(2-methoxy-ethyl)-1H-indol-3-yl]-methanone hydrochloride]", "Ki": 211}
{"smiles": "COCCn1cc(C(=O)N2CCC(c3cc(CN)ccc3F)CC2)c2c(N(C)C)cccc21", "note": "[Example 77, [4-(5-Aminomethyl-2-fluoro-phenyl)-piperidin-1-yl]-[4-dimethylamino-1-(2-methoxy-ethyl)-1H-indol-3-yl]-methanone hydrochloride]", "Ki": 57}
{"smiles": "NCc1ccc(F)c(C2CCN(C(=O)c3cn(CCOC(F)(F)F)c4cccc(Br)c34)CC2)c1", "note": "[Example 79, 4-(5-Aminomethyl-2-fluoro-phenyl)-piperidin-1-yl]-[4-bromo-1-(2-trifluoromethoxy-ethyl)-1H-indol-3-yl]-methanone hydrochloride]", "Ki": 935}
{"smiles": "NCc1ccc(F)c(C2CCN(C(=O)c3cn(CCOC(F)(F)F)c4cccc(-c5ccccc5)c34)CC2)c1", "note": "[Example 80, [4-(5-Aminomethyl-2-fluoro-phenyl)-piperidin-1-yl]-[4-phenyl-1-(2-trifluoromethoxy-ethyl)-1H-indol-3-yl]-methanone hydrochloride]", "Ki": 961}
{"smiles": "NCc1ccc(F)c(C2CCN(C(=O)c3cn(CCOC(F)(F)F)c4ccccc34)CC2)c1", "note": "[Example 81, hydrochloride]", "Ki": 224}
{"smiles": "NCc1ccc(F)c(C2CCN(C(=O)c3cn(CCOC(F)(F)F)c4c(F)cccc34)CC2)c1", "note": "[Example 86, [4-(5-Aminomethyl-2-fluoro-phenyl)-piperidin-1-yl]-[7-fluoro-1-(2-trifluoromethoxy-ethyl)-1H-indol-3-yl]-methanone hydrochloride]", "Ki": 80}
{"smiles": "NCc1ccc(F)c(C2CCN(C(=O)c3cn(CCOC(F)(F)F)c4c(Cl)cccc34)CC2)c1", "note": "[Example 87, hydrochloride]", "Ki": 207}
{"smiles": "Cc1cccc2c(C(=O)N3CCC(c4cc(CN)ccc4F)CC3)cn(CCOC(F)(F)F)c12", "note": "[Example 88, hydrochloride]", "Ki": 239}
{"smiles": "NCc1ccc(F)c(C2CCN(C(=O)c3cn(CCOC(F)(F)F)c4cccc(F)c34)CC2)c1", "note": "[Example 90, [4-(5-Aminomethyl-2-fluoro-phenyl)-piperidin-1-yl]-[4-fluoro-(2-trifluoromethoxy-ethyl)-1H-indol-3-yl]-methanone hydrochloride]", "Ki": 396}
{"smiles": "COCCn1cc(C(=O)N2CCC(c3cc(CN)ccc3F)CC2)c2c(C(=O)N(C)C)cccc21", "note": "[Example 91, 3-[4-(5-Aminomethyl-2-fluoro-phenyl)-piperidine-1-carbonyl]-1-(2-methoxy-ethyl)-1H-indol-4-carboxylic acid dimethylamide hydrochloride]", "Ki": 20}
{"smiles": "NCc1ccc(F)c(C2CCN(C(=O)c3cn(CCOC(F)(F)F)c4cccc(-c5cncnc5)c34)CC2)c1", "note": "[Example 92, [4-(5-Aminomethyl-2-fluoro-phenyl)-piperidin-1-yl]-[4-pyrimidin-5-yl-1-(2-trifluoromethoxy-ethyl)-1H-indol-3-yl]-methanone dihydrochloride]", "Ki": 90}
{"smiles": "COCCn1cc(C(=O)N2CCC(c3cc(CN)ccc3F)CC2)c2c(C(=O)N3CCCCC3)cccc21", "note": "[Example 94, [4-(5-Aminomethyl-2-fluoro-phenyl)-piperidine-1-yl]-[1-(2-methoxy-ethyl)-4-(piperidine-1-carbonyl)-1H-indol-3-yl]-methanone hydrochloride]", "Ki": 21}
{"smiles": "COCCn1cc(C(=O)N2CCC(c3cc(CN)ccc3F)CC2)c2c(NC(=O)C3CCOCC3)cccc21", "note": "[Example 95, Tetrahydro-pyran-4-carboxylic acid [3-[4-(5-aminomethyl-2-fluoro-phenyl)-piperidine-1-carbonyl]-1-(2-methoxy-ethyl)-1H-indol-4-yl]-amide hydrochloride]", "Ki": 44}
{"smiles": "COCCn1cc(C(=O)N2CCC(c3cc(CN)ccc3F)CC2)c2c(NC(C)=O)cccc21", "note": "[Example 96, N-[3-[4-(5-Aminomethyl-2-fluoro-phenyl)-piperidine-1-carbonyl]-1-(2-methoxy-ethyl)-1H-indol-4-yl]-acetamide hydrochloride]", "Ki": 18}
{"smiles": "COCCn1cc(C(=O)N2CCC(c3cc(CN)ccc3F)CC2)c2c(NC(=O)C3CCN(C)CC3)cccc21", "note": "[Example 97, 1-Methyl-piperidine-4-carboxylic acid [3-[4-(5-aminomethyl-2-fluoro-phenyl)-piperidine-1-carbonyl]-1-(2-methoxy-ethyl)-1H-indol-4-yl]-amide hydrochloride]", "Ki": 28}
{"smiles": "COCCn1cc(C(=O)N2CCC(c3cc(CN)ccc3F)CC2)c2c(NC(=O)C3CC4CCC3C4)cccc21", "note": "(stereo not drawn) [Example 98, Bicyclo[2.2.1]heptane-2-carboxylic acid [3-[4-(5-aminomethyl-2-fluoro-phenyl)-piperidine-1-carbonyl]-1-(2-methoxy-ethyl)-1H-indol-4-yl]-amide hydrochloride]", "Ki": 147}
{"smiles": "COCCn1cc(C(=O)N2CCC(c3cc(CN)ccc3F)CC2)c2c(NC(=O)N3CCOCC3)cccc21", "note": "[Example 99, Morpholine-4-carboxylic acid [3-[4-(5-aminomethyl-2-fluoro-phenyl)-piperidine-1-carbonyl]-1-(2-methoxy-ethyl)-1H-indol-4-yl]-amide hydrochloride]", "Ki": 25}
{"smiles": "COCCn1cc(C(=O)N2CCC(c3cc(CN)ccc3F)CC2)c2c(NC(=O)N(C)C)cccc21", "note": "[Example 100, 3-[3-[4-(5-Aminomethyl-2-fluoro-phenyl)-piperidine-1-carbonyl]-1-(2-methoxy-ethyl)-1H-indol-4-yl]-1,1-dimethyl-urea hydrorchloride]", "Ki": 17}
{"smiles": "COCCn1cc(C(=O)N2CCC(c3cc(CN)ccc3F)CC2)c2c(NC(=O)c3ccncc3)cccc21", "note": "[Example 101, N-[3-[4-(5-Aminomethyl-2-fluoro-phenyl)-piperidine-1-carbonyl]-1-(2-methoxy-ethyl)-1H-indol-4-yl]-isonicotinamide hydrochloride]", "Ki": 11}
{"smiles": "COCCn1cc(C(=O)N2CCC(c3cc(CN)ccc3F)CC2)c2c(NC(=O)c3cncnc3)cccc21", "note": "[Example 102, Pyrimidine-5-carboxylic acid [3-[4-(5-aminomethyl-2-fluoro-phenyl)-piperidine-1-carbonyl]-1-(2-methoxy-ethyl)-1H-indol-4-yl]-amide hydrochloride]", "Ki": 22}
{"smiles": "COCCn1cc(C(=O)N2CCC(c3cc(CN)ccc3F)CC2)c2c(NC(=O)c3ccno3)cccc21", "note": "[Example 103, Isoxazole-5-carboxylic acid [3-[4-(5-aminomethyl-2-fluoro-phenyl)-piperidine-1-carbonyl]-1-(2-methoxy-ethyl)-1H-indol-4-yl]-amide hydrochloride]", "Ki": 41}
{"molecular_target": "T1, recombinant human beta tryptase", "assay": "beta-Tryptase inhibition, chromogenic enzyme assay (substrate S2366, read at 405 nm)", "type": "biochemical", "settings": "Tryptase Ki (nM), additional value in parentheses tagged \"719\" (code not explained)", "procedure,_shortened": "as §1", "units": {"Ki": "nM"}}
{"smiles": "COCCn1cc(C(=O)N2CCC(c3cc(CN)ccc3F)CC2)c2c(C(=O)N(C)C)cccc21", "note": "[Example 91, 3-[4-(5-Aminomethyl-2-fluoro-phenyl)-piperidine-1-carbonyl]-1-(2-methoxy-ethyl)-1H-indol-4-carboxylic acid dimethylamide hydrochloride]", "Ki": 54}
{"molecular_target": "T1, recombinant human beta tryptase", "assay": "beta-Tryptase inhibition, chromogenic enzyme assay (substrate S2366, read at 405 nm)", "type": "biochemical", "settings": "Tryptase Ki (nM), additional value in parentheses tagged \"719D\" (code not explained)", "procedure,_shortened": "as §1", "units": {"Ki": "nM"}}
{"smiles": "COCCn1cc(C(=O)N2CCC(c3cc(CN)ccc3F)CC2)c2c(NC(=O)C3CCOCC3)cccc21", "note": "[Example 95, Tetrahydro-pyran-4-carboxylic acid [3-[4-(5-aminomethyl-2-fluoro-phenyl)-piperidine-1-carbonyl]-1-(2-methoxy-ethyl)-1H-indol-4-yl]-amide hydrochloride]", "Ki": 47}
{"molecular_target": "T1, recombinant human beta tryptase", "assay": "beta-Tryptase inhibition, chromogenic enzyme assay (substrate S2366, read at 405 nm)", "type": "biochemical", "settings": "Tryptase Ki (nM), additional value in parentheses tagged \"8923\" (code not explained)", "procedure,_shortened": "as §1", "units": {"Ki": "nM"}}
{"smiles": "COCCn1cc(C(=O)N2CCC(c3cc(CN)ccc3F)CC2)c2c(C(=O)N(C)C)cccc21", "note": "[Example 91, 3-[4-(5-Aminomethyl-2-fluoro-phenyl)-piperidine-1-carbonyl]-1-(2-methoxy-ethyl)-1H-indol-4-carboxylic acid dimethylamide hydrochloride]", "Ki": 28}
{"smiles": "COCCn1cc(C(=O)N2CCC(c3cc(CN)ccc3F)CC2)c2c(NC(=O)C3CCOCC3)cccc21", "note": "[Example 95, Tetrahydro-pyran-4-carboxylic acid [3-[4-(5-aminomethyl-2-fluoro-phenyl)-piperidine-1-carbonyl]-1-(2-methoxy-ethyl)-1H-indol-4-yl]-amide hydrochloride]", "Ki": 15}
